Test results reported in patent US5120782A, “Substituted pyrrolo-pyridines pharmaceuticals” (Bayer Aktiengesellschaft, priority 1990, dated 1992).

Biological target: T1, 3-hydroxy-3-methyl-glutaryl-coenzyme A (HMG-CoA) reductase (Rattus norvegicus, UniProt P51639)
T1 construct: the livers were removed from the animals and placed on ice; from tissue; host or cells: liver of male Rico rats fed colestyramine; 100,000 g (microsomal) pellet, frozen at -78° C
T1 sequence (P51639 1-887): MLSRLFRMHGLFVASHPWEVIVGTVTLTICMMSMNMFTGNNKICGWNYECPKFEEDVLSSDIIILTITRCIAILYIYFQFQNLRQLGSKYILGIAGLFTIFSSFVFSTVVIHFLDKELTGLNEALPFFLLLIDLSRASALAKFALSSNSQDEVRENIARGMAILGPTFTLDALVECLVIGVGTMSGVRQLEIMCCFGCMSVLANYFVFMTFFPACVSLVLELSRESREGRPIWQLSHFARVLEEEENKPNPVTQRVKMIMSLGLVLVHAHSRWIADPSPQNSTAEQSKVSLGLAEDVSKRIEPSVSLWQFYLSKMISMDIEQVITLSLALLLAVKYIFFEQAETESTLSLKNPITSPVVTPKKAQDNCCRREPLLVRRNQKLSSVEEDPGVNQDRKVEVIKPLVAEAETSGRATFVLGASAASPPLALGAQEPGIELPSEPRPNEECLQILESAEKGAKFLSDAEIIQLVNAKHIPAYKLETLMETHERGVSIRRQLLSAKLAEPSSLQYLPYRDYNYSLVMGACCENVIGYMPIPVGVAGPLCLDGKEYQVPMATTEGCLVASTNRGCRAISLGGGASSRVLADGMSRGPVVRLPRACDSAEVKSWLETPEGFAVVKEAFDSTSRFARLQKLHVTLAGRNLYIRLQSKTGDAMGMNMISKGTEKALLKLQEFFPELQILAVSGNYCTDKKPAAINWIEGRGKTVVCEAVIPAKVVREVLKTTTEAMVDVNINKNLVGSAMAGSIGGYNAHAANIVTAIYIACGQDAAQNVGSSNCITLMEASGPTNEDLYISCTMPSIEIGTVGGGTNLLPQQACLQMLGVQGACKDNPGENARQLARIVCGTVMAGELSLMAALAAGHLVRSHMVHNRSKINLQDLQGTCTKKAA
Assay: enzyme activity determination, inhibition of HMG-CoA reductase relative to mevinolin
Type: biochemical, Male Rico rats (liver)
Conditions: relative inhibitory potency; IC50 of reference mevinolin set at 1 and compared with simultaneously determined IC50 of test compound; 20 min pre-incubation, 60 min at 37° C.
Description: The enzyme activity determination was carried out as modified by G. C. Ness et al., Archives of Biochemistry and Biophysics 197, 493-499 (1979). Male Rico rats (body weight 300-400 g) were treated with altromin powdered feed, to which 40 g of colestyramine/kg of feed had been added, for 11 days. After decapitation, the livers were removed from the animals and placed on ice. The livers were comminuted and homogenized 3 times in a Potter-Elvejem homogenizsr in 3 volumes of 0.1 M sucrose, 0.05 M KCl, 0.04 M Kx Hy phosphate, 0.03 M ethylene-diaminetetraacetic acid, 0.002 M dithiothreitol (SPE) buffer pH 7.2. The mixture was then centrifuged at 15,000 g for 15 minutes and the sediment was discarded. The supernatant was sedimented at 100,000 g for 75 minutes. The pellet was taken up in 1/4 volumes of SPE buffer, homogenized again and then centrifuged again at 100,000 g for 60 minutes. The pellet was taken up using a 5-fold amount of its volume of SPE buffer, homogenized and frozen and stored at -78° C. (=enzyme solution).
For testing, the test compounds (or mevinolin as a reference substance) were dissolved in dimethylformamide with the addition of 5 vol. % of 1 N NaOH and employed in the enzyme test using 10 μl in various concentrations. The test was begun after 20 minutes pre-incubation of the compounds with the enzyme at 37° C. The test mixture amounted to 0.380 ml and contained 4 μmol of glucose 6-phosphate, 1.1 mg of bovine serum albumin, 2.1 μmol of dithiothreitol, 0.35 μmol of NADP, 1 unit of glucose 6-phosphate dehydrogenase, 35 μmol of Kx Hy phosphate pH 7.2, 20 μl of enzyme preparation and 56 nmol of 3-hydroxy-3-methyl--glutaryl coenzyme A (glutaryl-3-^14 C) of 100,000 dpm.
After an incubation of 60 minutes at 37° C., the mixture was centrifuged and 600 μl of the supernatant was applied to a 0.7×4 cm column packed with a 5-chloride 100-200 mesh (anion exchanger). The column was washed with 2 ml of distilled water and 3 ml of Aquasol was added to the runnings plus washing water and counted in an LKB scintillation counter. IC50 values were determined by intrapolation by plotting the percentage inhibition against the concentration of the compound in the test. In order to determine the relative inhibitory potency, the IC50 value of the reference substance mevinolin was set at 1 and compared with the simultaneously determined IC50 value of the test compound.

In the case of `CC(C)c1nc2c(ccn2C(C)C)c(-c2ccc(F)cc2)c1/C=C/[C@@H](O)C[C@@H](O)CC(=O)O` (relative stereo) [Example 2c], the “in vitro relative activity (Mevinolin = 1)” value (shortened to “in vitro relative activity”) is reported as 3.

`COC(=O)C[C@H](O)C[C@H](O)/C=C/c1c(C(C)C)nc2c(ccn2CCc2ccccc2)c1-c1ccc(F)cc1` (relative stereo) [Example 1f] was tested, and the “in vitro relative activity” value was 17.

For `CC(C)c1nc2c(ccn2Cc2ccccc2)c(-c2ccc(F)cc2)c1/C=C/[C@@H](O)C[C@@H](O)CC(=O)O` (relative stereo) [Example 2g], the “in vitro relative activity” value was 2.

In the case of `CC(C)c1nc2c(ccn2CCc2ccccc2)c(-c2ccc(F)cc2)c1/C=C/[C@@H](O)C[C@@H](O)CC(=O)O` (relative stereo) [Example 2f], the “in vitro relative activity” value is reported as 10.

For `CC(C)c1nc2[nH]ccc2c(-c2ccc(F)cc2)c1/C=C/[C@@H](O)C[C@@H](O)CC(=O)O` (relative stereo) [Example 2a, Sodium erythro-(E)-7-[4-(4-fluorophenyl)-6-isopropyl-1H-pyrrolo[2,3-b]pyridin-5-yl]-3,5-dihydroxy-hept-6-enoate], the “in vitro relative activity” value was 3.

`COC(=O)C[C@H](O)C[C@H](O)/C=C/c1c(C(C)C)nc2[nH]ccc2c1-c1ccc(F)cc1` (relative stereo) [Example 1a, Methyl erythro-(E)-7-[4-(4-fluorophenyl)-6-isopropyl-1H-pyrrolo[2,3-b]pyridin-5-yl]3,5-dihydroxy-hept-6-enoate] was tested, and the “in vitro relative activity” value was 3.

For `COC(=O)C[C@H](O)C[C@H](O)/C=C/c1c(C(C)C)nc2c(ccn2CC#N)c1-c1ccc(F)cc1` (relative stereo) [Example 1d], the “in vitro relative activity” value was 27.

`COC(=O)C[C@H](O)C[C@H](O)/C=C/c1c(C(C)C)nc2c(ccn2Cc2ccccc2)c1-c1ccc(F)cc1` (relative stereo) [Example 1g] was tested, and the “in vitro relative activity” value was 4.

For `CC(C)c1nc2c(ccn2C)c(-c2ccc(F)cc2)c1/C=C/[C@@H](O)C[C@@H](O)CC(=O)O` (relative stereo) [Example 2b], the “in vitro relative activity” value was 3.

In the case of `COC(=O)C[C@H](O)C[C@H](O)/C=C/c1c(C(C)C)nc2c(ccn2C(C)C)c1-c1ccc(F)cc1` (relative stereo) [Example 1c], the “in vitro relative activity” value is reported as 13.

For `C=CCn1ccc2c(-c3ccc(F)cc3)c(/C=C/[C@@H](O)C[C@@H](O)CC(=O)O)c(C(C)C)nc21` (relative stereo) [Example 2h], the “in vitro relative activity” value was 10.

`COC(=O)C[C@H](O)C[C@H](O)/C=C/c1c(C(C)C)nc2c(ccn2CCC#N)c1-c1ccc(F)cc1` (relative stereo) [Example 1j] was tested, and the “in vitro relative activity” value was 24.

With `C#CCn1ccc2c(-c3ccc(F)cc3)c(/C=C/[C@@H](O)C[C@@H](O)CC(=O)OC)c(C(C)C)nc21` (relative stereo) [Example 1e] the “in vitro relative activity” value was 17.

For `COC(=O)C[C@H](O)C[C@H](O)/C=C/c1c(C(C)C)nc2c(ccn2C)c1-c1ccc(F)cc1` (relative stereo) [Example 1b], the “in vitro relative activity” value was 3.

In the case of `C=CCn1ccc2c(-c3ccc(F)cc3)c(/C=C/[C@@H](O)C[C@@H](O)CC(=O)OC)c(C(C)C)nc21` (relative stereo) [Example 1h], the “in vitro relative activity” value is reported as 33.

With `COC(=O)C[C@H](O)C[C@H](O)/C=C/c1c(C(C)C)nc2c(ccn2Cc2cccnc2)c1-c1ccc(F)cc1` (relative stereo) [Example 1i] the “in vitro relative activity” value was 9.
